Measured values published in article PMC8253220, “Molecular design, synthesis and in vitro biological evaluation of thienopyrimidine–hydroxamic acids as chimeric kinase HDAC inhibitors: a challenging approach to combat cancer” (Journal of Enzyme Inhibition and Medicinal Chemistry, 2021).
Values joined by “and” are separate entries in the source; they are usually repeats but may differ in a detail not shown here. Equal values may be shown once.

Key:
IGROV1 = assay: NCI one-dose screen; type: cell-based, human; conditions: Ovarian IGROV1, 10 µM single dose
Description: (§1) All of the synthesised structures were selected and submitted to NCI based on computer modelling techniques and the degree of diversity of structures for the evaluation of their antiproliferative activity. The 20 synthesised compounds were selected with their respective NCI codes [NCS D-820157- NCS D-820176] for the inhibition percent assay at an initial single dose of 10 μM on the full NCI 60 cell panel, where the mean graph of the percent growth for all compounds on the full NCI cell panel is evaluated, compared to the untreated control cells (Supplementary Material). In vitro cell line inhibition % of all synthesised compounds is represented in (Table 1 of Supplementary Material).
(§2) All of the synthesised compounds (20) were submitted to NCI and selected for in vitro anticancer assay against a panel of 60 cancer cell lines. The methodology of assay and calculations is as reported.

T-47D = assay: NCI one-dose screen; type: cell-based, human; conditions: Breast T-47D, 10 µM single dose
Description: as §1, §2

UACC-257 = assay: NCI one-dose screen; type: cell-based, human; conditions: Melanoma UACC-257, 10 µM single dose
Description: as §1, §2

HCT-15 = assay: NCI one-dose screen; type: cell-based, human; conditions: Colon HCT-15, 10 µM single dose
Description: as §1, §2

NCI-H23 = assay: NCI one-dose screen; type: cell-based, human; conditions: NSCLC NCI-H23, 10 µM single dose
Description: as §1, §2

K-562 = assay: NCI one-dose screen; type: cell-based, human; conditions: Leukemia K-562, 10 µM single dose
Description: as §1, §2

M14 = assay: NCI one-dose screen; type: cell-based, human; conditions: Melanoma M14, 10 µM single dose
Description: as §1, §2

MDA-MB-435 = assay: NCI one-dose screen; type: cell-based, human; conditions: Melanoma MDA-MB-435, 10 µM single dose
Description: as §1, §2

SK-OV-3 = assay: NCI one-dose screen; type: cell-based, human; conditions: Ovarian SK-OV-3, 10 µM single dose
Description: as §1, §2

full NCI 60 cell panel = assay: NCI one-dose screen, whole panel statistics; type: cell-based, human; conditions: 1.00E-5 Molar; for Mean Growth Percent: mean over panel
Description: as §1, §2

Hela nuclear extracts = assay: Hela nuclear extract HDAC inhibitor assay (BPS Bioscience); type: biochemical; conditions: 10 µM
Description: The purpose of the study is to determine the effects of twenty compounds from Misr International University on the enzymatic activities of hela nuclear extracts using an in vitro […]
7a Solution 10mM DMSO 10 10 % DMSO in
7b Solution 10mM DMSO 10 10 % DMSO in
7d Solution 10mM DMSO 10 10 % DMSO in
2.3 Experimental Conditions
2.3.1 Enzymes and Substrates
Assay Catalog # Substrate
Hela Nuclear Exctract 50053 10 µM HDAC Substrate 3
For the hela nuclear extracts, hela cells were grown to 90 % confluency. Hela nuclear extracts were prepared from the Nuclear Extraction Kit from abcam (Catalog # ab113474). The final total protein concentration was calculated to be 2.4 µg/µl. From this, the hela nuclear extracts was diluted 20-fold in HDAC assay buffer and 5 µl of the dilution was added to a 50 µl reaction.
The compounds are dissolved in DMSO. A series of dilutions of the compounds were prepared with 10% DMSO in HDAC assay buffer and 5 µl of the dilution was added to a 50 µl reaction so that the final concentration of DMSO is 1 % in all of […]
The enzymatic reactions for the hela nuclear extract were conducted in duplicate at 37 °C for 60 minutes in a 50 µl mixture containing HDAC assay buffer, 5 µg BSA, an HDAC substrate (see 2.3.1), hela nuclear extract, and a test compound (see 2.2).
After enzymatic reactions, 50μl of 2 x HDAC Developer was added to each well for the hela nuclear extract and the plate was incubated at room temperature for an additional 15 […]
Fluorescence intensity was measured at an excitation of 360 nm and an emission of 460 nm using a Tecan Infinite M1000 microplate reader.
Hela nuclear extract activity assays were performed in duplicates at each concentration.
The fluorescent intensity data were analyzed using the computer software, Graphpad Prism. In the absence of the compound, the fluorescent intensity (Ft) in each data set was defined as 100% activity. In the absence of hela nuclear extract, the fluorescent intensity (Fb) in each data set was defined as 0% activity. The percent activity in the presence of each compound was calculated according to the following equation: %activity = (F-Fb)/(Ft-Fb), where F= the fluorescent intensity in the presence of the compound.
The values of percentage activity were plotted on a bar graph.

VEGFR-2 = VEGFR-2 (Homo sapiens, UniProt P35968); assay: In vitro VEGFR-2 tyrosine kinase inhibitory assay (Z'-LYTE, SelectScreen); type: biochemical; conditions: for inhibition at 10 µM: 10 µM single dose
Description: (§3) The target compounds were evaluated for their in vitro inhibitory activities against EGFR, VEGFR-2, and HDAC6. The EGFR and VEGFR-2 inhibitory assays were performed at Thermo Fischer Scientific, Madison, WI, USA (SelectScreenServices@thermofisher.com). The HDAC inhibitory assays were performed at BPS Bioscience, San Diego, CA, USA (www.bpsbioscience.com). Initially, all of the synthesised target compounds were evaluated for their percent inhibitory activity against EGFR, VEGFR-2, and HDACs at 10 µM single dose concentration, in which their mean percent inhibition is summarised in (Figure 5, Tables 1 and [2]). Representative compounds were evaluated for their percent inhibitory activity against EGFR and VEGFR-2 at 6 different concentrations (0.1 nM, 1 nM, 10 nM, 100 nM, 1 µM, 10 µM) to subsequently calculate their IC50 values (Table 3). Additionally, all of the synthesised target compounds were submitted to the National Cancer Institute “NCI” Bethesda, Maryland, USA (www.dtp.nci.nih.gov), to evaluate theirs in vitro antiproliferative activities against NCI 60- cancer cell line panel.
(§4) In vitro enzyme inhibition determination for the synthesised compounds was carried out in Thermo Fischer Scientific, Madison, WI, USA (SelectScreenServices@thermofisher.com). The EGFR and VEGFR-2 tyrosine kinase % inhibitory activity at a single-dose concentration of 10 µM was performed initially then representative compounds were evaluated at single-dose concentrations of (0.1 nM, 1 nM, 10 nM, 100 nM, 1 µM) using ZYLTE technology. A fluorescence-based, coupled-enzyme format is employed in the biochemical assay and depends on the sensitivity of proteolytic cleavage to non-phosphorylated and phosphorylated peptides. Then IC50 values for selected compounds were determined by GraphPad Prism at Misr international university.

EGFR = EGFR (Homo sapiens, UniProt P00533); assay: In vitro EGFR tyrosine kinase inhibitory assay (Z'-LYTE, SelectScreen); type: biochemical
Description: as §3, §4

EGFR, sequence (P00533 25-1210): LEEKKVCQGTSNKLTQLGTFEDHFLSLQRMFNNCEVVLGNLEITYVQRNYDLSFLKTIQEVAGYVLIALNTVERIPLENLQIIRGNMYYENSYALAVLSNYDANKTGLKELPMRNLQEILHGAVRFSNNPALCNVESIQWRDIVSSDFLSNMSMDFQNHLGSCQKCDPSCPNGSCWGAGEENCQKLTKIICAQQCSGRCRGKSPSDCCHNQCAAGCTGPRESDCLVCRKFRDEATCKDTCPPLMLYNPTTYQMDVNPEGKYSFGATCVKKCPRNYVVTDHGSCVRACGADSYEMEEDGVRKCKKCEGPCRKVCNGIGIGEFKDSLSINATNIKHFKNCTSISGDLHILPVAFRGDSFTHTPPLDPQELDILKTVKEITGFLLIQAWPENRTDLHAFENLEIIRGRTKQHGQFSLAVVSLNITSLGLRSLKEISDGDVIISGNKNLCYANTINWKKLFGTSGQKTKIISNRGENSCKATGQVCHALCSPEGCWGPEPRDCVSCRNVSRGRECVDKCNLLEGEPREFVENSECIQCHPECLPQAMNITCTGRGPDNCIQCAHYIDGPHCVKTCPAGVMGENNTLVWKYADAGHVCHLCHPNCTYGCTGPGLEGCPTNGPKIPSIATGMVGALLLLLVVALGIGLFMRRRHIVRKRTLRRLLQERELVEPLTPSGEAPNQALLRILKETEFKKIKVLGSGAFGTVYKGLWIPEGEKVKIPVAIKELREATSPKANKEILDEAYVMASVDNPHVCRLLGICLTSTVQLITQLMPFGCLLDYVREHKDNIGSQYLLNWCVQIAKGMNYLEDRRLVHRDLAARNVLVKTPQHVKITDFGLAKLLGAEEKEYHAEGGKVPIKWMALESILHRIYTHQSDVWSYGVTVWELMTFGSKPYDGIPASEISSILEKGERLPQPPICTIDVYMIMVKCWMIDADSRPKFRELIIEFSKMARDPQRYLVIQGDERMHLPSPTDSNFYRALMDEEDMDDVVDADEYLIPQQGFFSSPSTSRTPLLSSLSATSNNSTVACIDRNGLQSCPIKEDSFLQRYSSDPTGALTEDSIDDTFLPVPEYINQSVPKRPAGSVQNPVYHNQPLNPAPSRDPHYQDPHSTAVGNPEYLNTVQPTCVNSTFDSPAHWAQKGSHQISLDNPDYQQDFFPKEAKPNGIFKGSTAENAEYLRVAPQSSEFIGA
VEGFR-2, sequence (P35968 20-1356): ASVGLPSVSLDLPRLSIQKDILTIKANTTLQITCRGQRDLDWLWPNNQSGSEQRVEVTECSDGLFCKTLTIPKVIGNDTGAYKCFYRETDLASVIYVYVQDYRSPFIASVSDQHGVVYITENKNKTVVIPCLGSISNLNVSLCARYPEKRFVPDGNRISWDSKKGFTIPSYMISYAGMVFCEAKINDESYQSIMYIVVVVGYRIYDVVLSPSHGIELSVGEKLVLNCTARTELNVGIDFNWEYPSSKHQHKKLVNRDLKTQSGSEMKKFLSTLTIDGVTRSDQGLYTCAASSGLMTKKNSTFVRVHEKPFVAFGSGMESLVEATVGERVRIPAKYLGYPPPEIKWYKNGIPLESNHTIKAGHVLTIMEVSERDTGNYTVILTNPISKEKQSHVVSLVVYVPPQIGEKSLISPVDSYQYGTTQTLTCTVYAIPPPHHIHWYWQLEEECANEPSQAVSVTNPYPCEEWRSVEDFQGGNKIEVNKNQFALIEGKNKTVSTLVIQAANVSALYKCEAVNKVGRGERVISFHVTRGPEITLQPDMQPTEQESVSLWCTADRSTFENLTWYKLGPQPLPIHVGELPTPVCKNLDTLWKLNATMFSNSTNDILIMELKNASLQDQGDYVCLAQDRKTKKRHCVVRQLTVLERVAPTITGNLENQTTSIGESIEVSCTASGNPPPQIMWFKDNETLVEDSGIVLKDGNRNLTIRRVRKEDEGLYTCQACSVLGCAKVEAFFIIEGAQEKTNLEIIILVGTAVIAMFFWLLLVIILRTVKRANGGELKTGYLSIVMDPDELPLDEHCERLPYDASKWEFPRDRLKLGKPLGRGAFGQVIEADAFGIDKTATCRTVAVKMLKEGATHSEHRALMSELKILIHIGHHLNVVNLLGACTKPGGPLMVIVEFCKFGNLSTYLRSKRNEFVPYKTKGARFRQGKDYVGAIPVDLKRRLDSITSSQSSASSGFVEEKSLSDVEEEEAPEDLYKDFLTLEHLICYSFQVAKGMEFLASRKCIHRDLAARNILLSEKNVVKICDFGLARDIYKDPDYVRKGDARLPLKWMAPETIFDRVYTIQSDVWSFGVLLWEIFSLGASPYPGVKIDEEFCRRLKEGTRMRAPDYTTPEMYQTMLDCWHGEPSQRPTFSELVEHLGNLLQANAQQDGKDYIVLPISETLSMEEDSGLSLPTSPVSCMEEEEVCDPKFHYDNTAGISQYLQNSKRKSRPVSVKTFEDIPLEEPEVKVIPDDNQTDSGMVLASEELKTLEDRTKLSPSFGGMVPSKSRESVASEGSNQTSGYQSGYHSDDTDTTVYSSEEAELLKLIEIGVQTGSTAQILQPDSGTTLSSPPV

SMILES | Growth Percent (IGROV1) | Growth Percent (T-47D) | Growth Percent (UACC-257) | Growth Percent (HCT-15) | Growth Percent (NCI-H23) | Growth Percent (K-562) | Growth Percent (M14) | Growth Percent (MDA-MB-435) | Growth Percent (SK-OV-3) | Delta (one dose mean graph) (full NCI 60 cell panel) [%] | Range (one dose mean graph) (full NCI 60 cell panel) [%] | Mean Growth Percent (full NCI 60 cell panel) [%] | % Inhibition Hela Nuclear Extracts (Hela nuclear extracts) [%] | melting point [°C] | inhibition at 10 µM (VEGFR-2) [%] | inhibition at 10 µM (EGFR; 10 µM single dose) [%] | further results
Cc1c(C(=O)NO)sc2ncnc(Nc3ccc(Cl)cc3)c12 [Compound 15c, 4–(4-chlorophenylamino)-N-hydroxy-5-methylthieno[2,3-d]pyrimidine-6-carboxamide] | 72.7% and 72.73% | 90.6% and 90.65% | 110.0% and 110.09% | 101.7% and 101.72% | 91.8% and 91.83% | 105.0% | 107.8% and 107.86% | 102.4% and 102.42% | 93.4% and 93.42% | 28.53 | 83.38 | 99.73 | 4 | 349 | 87 |  | inhibition at 0.0001 µM (VEGFR-2; 0.1 nM compound, 10 μM ATP, read-out: % Inhibition mean, KDR (VEGFR2)): 7%; inhibition at 0.001 µM (VEGFR-2; 1 nM compound, 10 μM ATP, read-out: % Inhibition mean, KDR (VEGFR2)): 4%; inhibition at 0.01 µM (VEGFR-2; 10 nM compound, 10 μM ATP, read-out: % Inhibition mean, KDR (VEGFR2)): 7%; inhibition at 0.1 µM (VEGFR-2; 100 nM compound, 10 μM ATP, read-out: % Inhibition mean, KDR (VEGFR2)): 15%; inhibition at 1 µM (VEGFR-2; 1000 nM compound, 10 μM ATP, read-out: % Inhibition mean, KDR (VEGFR2)): 39%; IC50 (VEGFR-2; read-out: IC50 in enzyme assays VEGFR-2): 5.58 µM; inhibition at 0.0001 µM (EGFR; 0.1 nM compound, 10 μM ATP, read-out: % Inhibition mean, EGFR (ErbB1)): 0%; inhibition at 0.001 µM (EGFR; 1 nM compound, 10 μM ATP, read-out: % Inhibition mean, EGFR (ErbB1)): 5%; inhibition at 0.01 µM (EGFR; 10 nM compound, 10 μM ATP, read-out: % Inhibition mean, EGFR (ErbB1)): 34%; inhibition at 0.1 µM (EGFR; 100 nM compound, 10 μM ATP, read-out: % Inhibition mean, EGFR (ErbB1)): 81%; inhibition at 1 µM (EGFR; 1000 nM compound, 10 μM ATP, read-out: % Inhibition mean, EGFR (ErbB1)): 95%; Mean % inhibition EGFR (EGFR; 10 µM single dose): 97%; IC50 (EGFR; read-out: IC50 in enzyme assays EGFR): 0.019 µM
Cc1c(C(=O)NO)sc2ncnc(Nc3ccccc3)c12 [Compound 15b, N-hydroxy-5-methyl-4-(phenylamino)thieno[2,3-d]pyrimidine-6-carboxamide] | 87.7% | 90.8% and 90.83% | 107.0% and 107.03% | 91.3% and 91.34% | 90.5% and 90.51% | 94.9% and 94.99% | 100.4% and 100.48% | 98.5% and 98.58% | 125.8% and 125.83% | 24.31 | 53.05 | 97.09 | 9 | 200 | 32 | 98 | 
Cc1c(C(=O)NO)sc2ncnc(Nc3ccc(NC(=S)Nc4ccccc4)cc3)c12 [Compound 7d, 1–(4-(6-(hydroxycarbamoyl)-5-methylthieno[2,3-d]pyrimidin-4-ylamino)phenyl)-3-phenylthiourea] | 111.5% and 111.55% | 112.9% and 112.91% | 99.4% and 99.45% | 95.3% and 95.39% | 96.5% and 96.54% | 103.0% and 103.01% | 104.3% | 101.3% and 101.34% | 120.7% and 120.74% | 17.28 | 35.68 | 102.34 | 3 | 300 | 45 | 78 | 
Cc1c(C(=O)NCCC(=O)NO)sc2ncnc(Nc3ccccc3)c12 [Compound 19b, N-(3-(hydroxyamino)-3-oxopropyl)-5-methyl-4-(phenylamino)thieno[2,3-d]pyrimidine-6-carboxamide] | 101.8% and 101.82% | 101.18% | 105.0% and 105.04% | 95.0% and 95.07% | 95.7% and 95.71% | 101.9% and 101.92% | 106.1% and 106.19% | 102.9% and 102.98% | 122.0% and 122.03% | 19.11 | 40.57 | 100.57 | 5 | 267 to 270 | 13 | 76 | 
